“And” between values parts separate entries of the source, which are not always exact repeats. Equal entries are not always repeated. Where two headings read alike, the source gives them in different places.
Key:
[1] = tested on: patients with primary CNS and advanced solid tumors; test: Phase I dose-escalation trial of oral AR-42: safety and tolerability; assay type: in vivo
[2] = tested on: Burkitt lymphoma mouse models; details: cited from earlier work
[3] = cited from earlier work
[4] = tested on: patients with multiple myeloma and T- and B-cell lymphomas; details: cited from earlier work
[5] = tested on: xenograft and allograft schwannoma; details: cited from earlier work
[6] = tested on: primary CNS and advanced solid tumors; test: Phase I trial: response evaluation; assay type: in vivo, human
[7] = Plasma pharmacokinetics, LC-MS/MS, non-compartmental analysis; assay type: in vivo, human; details: for AUC / Cmax: oral; for AUC: Median AUC; for Cmax: Median Cmax
[8] = tested on: schwannoma and meningioma cell lines; details: cited from earlier work
[9] = human, plasma, patients without grade 3 or 4 toxicity

Question: Which results are given for CC(C)[C@H](C(=O)Nc1ccc(C(=O)NO)cc1)c1ccccc1 [AR-42]?
Answer: Nausea, treatment-related adverse event, Grade 1–2 ([1]; N=17, 30-80 mg): 8 (47.1%) n (%); Nausea, treatment-related adverse event, Grade 3–4 ([1]; N=17, 30-80 mg): 2 (11.8%) n (%); Neutropenia, treatment-related adverse event, All grades ([1]; N=17, 30-80 mg): 7 n (%) and 7 (41.2%) n (%); Neutropenia, treatment-related adverse event, Grade 1–2 ([1]; N=17, 30-80 mg): 7 (41.2%) n (%); Psychiatric disorder, treatment-related adverse event, All grades ([1]; N=17, 30-80 mg): 1 (5.9%) n (%); Psychiatric disorder, treatment-related adverse event, Grade 3–4 ([1]; N=17, 30-80 mg): 1 (5.9%) n (%); Thrombocytopenia, treatment-related adverse event, All grades ([1]; N=17, 30-80 mg): 13 (76.5%) n (%); Thrombocytopenia, treatment-related adverse event, Grade 1–2 ([1]; N=17, 30-80 mg): 8 (47.1%) n (%); Thrombocytopenia, treatment-related adverse event, Grade 3–4 ([1]; N=17, 30-80 mg): 5 (29.4%) n (%); Thromboembolic event, treatment-related adverse event, All grades ([1]; N=17, 30-80 mg): 1 (5.9%) n (%); Thromboembolic event, treatment-related adverse event, Grade 3–4 ([1]; N=17, 30-80 mg): 1 (5.9%) n (%); Vomiting, treatment-related adverse event, All grades ([1]; N=17, 30-80 mg): 4 (23.5%) n (%); Vomiting, treatment-related adverse event, Grade 1–2 ([1]; N=17, 30-80 mg): 4 (23.5%) n (%); Weight loss, treatment-related adverse event, All grades ([1]; N=17, 30-80 mg): 3 (17.6%) n (%); Weight loss, treatment-related adverse event, Grade 1–2 ([1]; N=17, 30-80 mg): 2 (11.8%) n (%); Weight loss, treatment-related adverse event, Grade 3–4 ([1]; N=17, 30-80 mg): 1 (5.9%) n (%); Only grade 4 TRAE ([1]; at the 80 mg dose): psychosis; No. of dose delays ([1]; dose level 1A, 30 mg): 0; No. of dose reductions ([1]; dose level 1A, 30 mg): 0; Description of DLT ([1]; dose level 1B, 60 mg): Thrombocytopenia (grade 3); No. of dose delays ([1]; dose level 1B, 60 mg): 4; No. of dose reductions ([1]; dose level 1B, 60 mg): 2; No. of patients with a DLT ([1]; dose level 1B, 60 mg, 7 patients): 1; No. of dose delays ([1]; dose level 2A, 60 mg): 0; No. of dose reductions ([1]; dose level 2A, 60 mg): 0; No. of patients with a DLT ([1]; dose level 2A, 60 mg, 2 patients): 0; No. of dose delays ([1]; dose level 2B, 80 mg): 0; No. of dose reductions ([1]; dose level 2B, 80 mg): 0; No. of patients with a DLT ([1]; dose level 2B, 80 mg, 2 patients): 1; Patients who developed a grade 4 toxicity ([1]; during cycle one, N=17): 5.9%; Patients who developed at most a grade 1 toxicity ([1]; during cycle one, N=17): 23.5%; Patients who developed at most a grade 2 toxicity ([1]; during cycle one, N=17): 29.4%; Patients who developed at most a grade 3 toxicity ([1]; during cycle one, N=17): 29.4%; Patients who experienced no toxicities ([1]; during cycle one, N=17): 11.8%; No. of dose delays ([1]; expansion cohort, 60 mg): 0; No. of dose reductions ([1]; expansion cohort, 60 mg): 0; Grade 4 thrombocytopenia ([1]; in vivo): no grade 4 thrombocytopenia; Recommended phase II dose (RP2D) ([1]; oral, three times weekly, three weeks of a 28-day cycle): 60 mg; Clinically significant bleeding events ([1]; with thrombocytopenia): no clinically significant bleeding events; Activity compared with vorinostat [2]: superior to that of vorinostat; Blood brain barrier penetration ([3]; mouse model): crossed the blood brain barrier; Blood brain barrier penetration ([3]; rodents): penetrates the blood brain barrier; Mean QTc change ([4]; patients with grade 1 QTc prolongation): 27.4 ms; Grade 1 QTc prolongation ([4]; phase I study in hematologic malignancies): 8 of 27; Thrombocytopenia ([4]; phase I trial in hematologic malignancies): 16 of 27; Maximum tolerated dose (MTD) ([4]; three times weekly for three weeks of a 28-day cycle): 40 mg; Schwannoma growth [5]: suppressed peripherally implanted xenograft and allograft schwannoma growth; Stable disease ([6]; 30 mg): 1 of 3; Stable disease ([6]; 60 mg): 7 of 11; Follow up without progression ([6]; 1 of 5 patients with NF2 or meningioma): > 27 months; Best response stable disease, proportion of patients ([6]; 15 evaluable patients, 95% CI 26.6–78.7): 53%; Stable disease ([6]; all evaluable patients): 8 of 15; Median PFS ([6]; evaluable NF2 or meningioma (n=5), 60 mg, 95% CI 1.9-not reached): 9.1 months; Median PFS ([6]; non-CNS solid tumors (n=10), 95% CI 0.1–5.0): 1.7 months; Median PFS ([6]; overall cohort, 95% CI 1.2–9.1): 3.6 months; Accumulation ([7]; 3 times weekly for three weeks of a four-week cycle): did not accumulate; Cmax, AUC0–24 and AUC0–∞ between Day 1 and Day 19 ([7]; cycle 1): remained consistent; AUC ([7]; human, plasma, patients with a grade 3 or 4 toxicity during cycle 1 and 2, p=0.036): 16.4 µM·h; AUC [7, 9]: 11.3 µM·h; Cmax ([7]; human, plasma, patients with a grade 3 or 4 toxicity during cycle 1 and 2, p=0.0016): 1540 nM; Cmax [7, 9]: 1040 nM; half-life ([7]; human, plasma, po): 8 to 13 h; AUC0–24 and AUC0–∞ higher in 80 mg dose group compared to 60 mg dose group ([7]; only two patients at 80 mg): roughly 50%; Median CL/F ([7]; patients with a grade 3 or 4 toxicity during cycle 1 and 2, p=0.0745): 10.48 L/h; Median CL/F ([7]; patients without grade 3 or 4 toxicity): 15.8 L/h; Proliferation of schwannoma and meningioma cell lines ([8]; cell cycle arrest at G2 and apoptosis): suppressed proliferation; AKT phosphorylation [8]: decreased AKT phosphorylation

— paper PMC8162746 (Cancer chemotherapy and pharmacology, 2021)
